Results taken from PMC12250347, “Calcium-dependent pathway as a primary cause of hypoxic RGC damage in monkey retinal explants” (PLOS One, 2025).

Assays:
[1] = system: purified porcine calpain 2; assay: Calpain-Glo Protease Assay; assay type: biochemical; details: 5 mM CaCl2, 10 min, room temperature; mean of two experiments
Source text: The porcine kidney was obtained from DART Co., Ltd. as part of a program aimed at the effective utilization of livestock by-products in Hokkaido, Japan. The procurement process followed ethical guidelines from Livestock Industry Bureau MAFF-J (ministry of agriculture, forestry and fisheries of Japan) for farm animal use, ensuring compliance with relevant regulations. Two porcine kidneys were rapidly frozen after removal, trimmed free of excess tissue or renal pelvis, and cut into small pieces (approximately 2 × 2 cm) before they thawed. About 250 g of these pieces were homogenized in 1200 mL of ice-cold 20 mM Tris-HCl (pH 8.0) with 5 mM ethylenediaminetetraacetic acid (EDTA), 0.1% 2-mercaptoethanol (2-ME), 0.1 mg/mL Pefabloc SC (MilliporeSigma, Burlington, MA, USA), 40 µg/mL bestatin, and 4 µg/mL pepstatin in a Waring blender HGBSS (Waring; Stamford, CT, USA) at 19,000 rpm using several bursts of 10 sec each with 20 sec cooling periods between each burst. The homogenate was centrifuged at 25,000 × g for 15 min at 4°C, and the supernatant was filtered through glass wool and a 5 µm filter (Merck) to remove floating lipids. The purification procedure was performed according to the method of Thompson and Goll with some minor modifications: the DEAE-cellulose and the DEAE-TSK ToyoPearl 650S columns were substituted with DEAE sepharose fast flow (Merck) and TSKgel DEAE-5PW (30) (Tosoh; Tokyo, Japan) columns, respectively. After purification, calpain-2 was dialyzed, and glycerol was added for freeze-thaw protection. The final buffer formulation was 20 mM imidazole, 5 mM 2-ME, 1 mM EDTA, 1 mM EGTA, and 20% glycerol.
For measurement of inhibitory activities against calpains in vitro, Calpain-Glo Protease Assay (Promega; Madison, WI, USA) was performed using human erythrocyte calpain 1 (MilliporeSigma) and purified porcine calpain 2. Briefly, 24 µL of each calpain diluted with 20 mM Tris-HCl (pH 7.4), 1 µL of each inhibitor, and 25 µL of reaction buffer including CaCl2 in a 96-well plate was incubated for 10 min at room temperature. The final concentration of CaCl2 in the reaction solution was 5 mM. The luminescence was measured using a microplate reader (GloMax Discover System; Promega). IC50 values from two independent experiments were averaged.

[2] = target: T1, human liver cathepsin B (Homo sapiens, UniProt P07858); assay: In vitro cathepsin inhibitory assay (Z-Phe-Arg-AMC fluorescence); assay type: biochemical; details: 15 ng/mL cathepsin B, 20 µM Z-Phe-Arg-AMC, 15 min, 37°C, pH 5.5; mean of two experiments
T1 construct: human liver cathepsin B (MilliporeSigma); purchased MilliporeSigma; host or cells: human liver
Experimental: (§1) Cathepsins K, B, and L were selected because of their known roles in cell death and early release following lysosomal membrane permeabilization. The inhibitory activities of cathepsin inhibitors were assessed in vitro using human recombinant cathepsin K (MilliporeSigma), human liver cathepsin B (MilliporeSigma), and human liver cathepsin L (MilliporeSigma). Cathepsins and the cathepsin substrate, Z-Phe-Arg-AMC (PEPTIDE INSTITUTE, INC.), were dissolved in 50 mM sodium acetate buffer (pH 5.5) containing 2 mM dithiothreitol and 2 mM EDTA. A cathepsin K inhibitor, Odanacatib (Selleck Chemicals, Houston, TX, USA), and a cathepsin L inhibitor, SID26681509 (Bio-Techne Corporation), were dissolved in dimethyl sulfoxide (DMSO) (Nacalai Tesque, Kyoto, Japan) before use in the assay. The final concentration of DMSO in the reaction solution was 2%. The cathepsin substrate, 20 µM Z-Phe-Arg-AMC, was incubated for 15 min with 20 ng/mL cathepsin K, 15 ng/mL cathepsin B, or 50 ng/mL cathepsin L, with or without each inhibitor at a final concentration of 0.001 nM to 100 µM in 100 µL of mixed reaction solution in a 96-well plate at 37 °C. The fluorescence was measured using a microplate reader (GloMax Discover System; Promega). IC50 values from two independent experiments were averaged.

[3] = target: T2, human liver cathepsin L (Homo sapiens, UniProt P07711); assay: as above; assay type: biochemical; details: 50 ng/mL cathepsin L, 20 µM Z-Phe-Arg-AMC, 15 min, 37°C, pH 5.5; mean of two experiments
T2 construct: human liver cathepsin L (MilliporeSigma); purchased MilliporeSigma; host or cells: human liver
T2 sequence (P07711 114-333): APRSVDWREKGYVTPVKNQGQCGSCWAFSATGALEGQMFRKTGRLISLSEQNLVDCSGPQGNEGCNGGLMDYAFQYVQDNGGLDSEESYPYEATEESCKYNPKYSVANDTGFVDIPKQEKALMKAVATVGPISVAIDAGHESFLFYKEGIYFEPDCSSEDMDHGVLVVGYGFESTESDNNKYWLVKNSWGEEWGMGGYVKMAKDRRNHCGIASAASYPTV
Experimental: as §1

[4] = target: T3, human recombinant cathepsin K (Homo sapiens, UniProt P43235); assay: as above; assay type: biochemical; details: 20 ng/mL cathepsin K, 20 µM Z-Phe-Arg-AMC, 15 min, 37°C, pH 5.5; mean of two experiments
T3 construct: purchased MilliporeSigma
T3 sequence (P43235 115-329): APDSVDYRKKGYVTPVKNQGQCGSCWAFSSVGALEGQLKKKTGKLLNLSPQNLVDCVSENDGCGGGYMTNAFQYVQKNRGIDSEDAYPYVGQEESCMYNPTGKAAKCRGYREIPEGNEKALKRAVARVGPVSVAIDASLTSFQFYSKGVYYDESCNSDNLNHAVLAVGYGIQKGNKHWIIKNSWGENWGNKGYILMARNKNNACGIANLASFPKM
Experimental: as §1

[5] = system: RGCs in monkey retinal explants; set-up: method as in PMID 26393472, PMID 33156340; details: human and monkey retinal explants treated with hypoxia; cited from earlier work
[6] = system: calpain 1 activation and proteolysis of α-spectrin; set-up: method as in PMID 26393472; details: immunoblotting of hypoxic retinal explants; cited from earlier work

| SMILES | IC50 [1] [nM] | IC50 [2] [nM] | IC50 [3] [nM] | IC50 [4] [nM] | IC50 Porcine Calpain 2 [1] | Effect on RGC damage in hypoxic retinal explants [5] | Effect on autolysis of calpain 1 in hypoxic retinal explants [6] | Effect on autolysis of calpain 2 in hypoxic retinal explants [6] |
| --- | --- | --- | --- | --- | --- | --- | --- | --- |
| CCc1ccccc1NC(=O)CSC(=O)NNC(=O)[C@H](Cc1c[nH]c2ccccc12)NC(=O)OC(C)(C)C [SID26681509] | 93200 | 495 | 60 | 1520 | – | – | – | – |
| CC(C)(F)C[C@H](N[C@@H](c1ccc(-c2ccc(S(C)(=O)=O)cc2)cc1)C(F)(F)F)C(=O)NC1(C#N)CC1 [Odanacatib] | – | 167 | 5130 | 0.28 | No effect | – | – | – |
| COCCOCCOC(=O)N[C@@H](CC(C)C)C(=O)N[C@@H](Cc1ccccc1)C(=O)C(=O)NC1CC1 [SNJ-1945] | 72 | – | – | – | – | partially inhibited RGC damage | inhibited the autolysis of calpain 1 | did not affect |
